Test [1] concerns the target HIS-KRAS (G12V) (Homo sapiens, UniProt P01116, G12V). The test can be described thus: KRas G12V binding assay (TR-FRET, SOS1-mediated BODIPY FL GTP nucleotide exchange). The conditions noted are these: GDP-loaded HIS-KRAS (G12V) 3 nM, 1 hour pre-incubation with compound, 4 hours with SOS1 ExD and BODIPY FL GTP at 25° C. On the procedure: Biological Example 3: KRas G12V Binding Assay
HIS-KRAS (G12V) was diluted to 5 uM in EDTA buffer (20 mM HEPES, pH 7.4, 50 mM NaCl, 10 mM EDTA, 0.01% (v/v) Tween-20) and incubated for 30 min at 25° C. The EDTA pretreated HIS-KRAS (G12V) was diluted to 12 nM in assay buffer (25 mM HEPES, pH 7.4, 120 mM NaCl, 5 mM MgCl 2, 1 mM DTT, 0.01% (v/v) Tween 20, 0.1% (w/v) BSA) containing 120 nM GDP (Sigma) and MAb Anti 6HIS—Tb cryptate Gold (Cisbio) and incubated for 1 hour at 25° C. to prepare GDP-loaded HIS-KRAS (G12V). The GDP-loaded HIS-KRAS (G12V) was pre-incubation with diluted compounds in a 384-well plate (Greiner) for 1 hour, then purified SOS1 ExD (Flag tag, aa 564-1049) and BODIPY™ FL GTP (Invitrogen) were added to the assay wells (Final concentration: 3 nM HIS-KRAS (G12V), 2 uM SOS1 ExD, 80 nM BODIPY™ FL GTP, 21 ng/mL MAb Anti 6HIS—Tb cryptate Gold) and incubated for 4 hours at 25° C. TR-FRET signals were then read on Tecan Spark multimode microplate reader. The parameters were F486: Excitation 340 (35) nm, Emission 486 (10) nm, Lag time 100 μs, Integration time 200 μs; F515: Excitation 340 (35) nm, Emission 515 (10) nm, Lag time 100 μs, Integration time 200 μs. TR-FRET ratios for each individual wells were calculated by equation: TR-FRET ratio=(Signal F515/Signal F486)*10000. Then the data were analyzed using a 4-parameter logistic model to calculate IC50 values. The following table lists the IC50 values of certain compounds of the invention.

The target of test [2] is T1, HIS-KRAS (G12C, aa 2-185) (Homo sapiens, UniProt P01116, G12C).
T1 construct: HIS-KRAS (G12C, aa 2-185, Sino biological); purchased Sino biological
T1 sequence (P01116 2-185 isoform P01116-2 G12C): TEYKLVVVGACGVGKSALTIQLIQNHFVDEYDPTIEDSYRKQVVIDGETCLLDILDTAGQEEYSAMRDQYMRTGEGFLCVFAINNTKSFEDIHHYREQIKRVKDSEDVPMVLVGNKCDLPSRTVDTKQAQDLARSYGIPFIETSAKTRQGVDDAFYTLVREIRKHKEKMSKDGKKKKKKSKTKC
The test can be described thus: KRas G12C binding assay (TR-FRET, SOS1-mediated BODIPY FL GTP nucleotide exchange). The note with it: GDP-loaded HIS-KRAS (G12C) 3 nM, 1 hour pre-incubation with compound, 4 hours with SOS1 ExD and BODIPY FL GTP at 25° C. The protocol: Biological Example 1: KRas G12C Binding Assay
HIS-KRAS (G12C, aa 2-185, Sino biological) was diluted to 5 uM in EDTA buffer (20 mM HEPES, pH 7.4, 50 mM NaCl, 10 mM EDTA, 0.01% (v/v) Tween-20) and incubated for 30 min at 25° C. The EDTA pretreated HIS-KRAS (G12C) was diluted to 12 nM in assay buffer (25 mM HEPES, pH 7.4, 120 mM NaCl, 5 mM MgCl 2, 1 mM DTT, 0.01% (v/v) Tween 20, 0.1% (w/v) BSA) containing 120 nM GDP (Sigma) and MAb Anti 6HIS—Tb cryptate Gold (Cisbio) and incubated for 1 hour at 25° C. to prepare GDP-loaded HIS-KRAS (G12C). The GDP-loaded HIS-KRAS (G12C) was pre-incubation with diluted compounds in a 384-well plate (Greiner) for 1 hour, then purified SOS1 ExD (Flag tag, aa 564-1049) and BODIPY™ FL GTP (Invitrogen) were added to the assay wells (Final concentration: 3 nM HIS-KRAS (G12C), 2 uM SOS1 ExD, 80 nM BODIPY™ FL GTP, 21 ng/mL MAb Anti 6HIS—Tb cryptate Gold) and incubated for 4 hours at 25° C. TR-FRET signals were then read on Tecan Spark multimode microplate reader. The parameters were F486: Excitation 340 (35) nm, Emission 486 (10) nm, Lag time 100 μs, Integration time 200 μs; F515: Excitation 340 (35) nm, Emission 515 (10) nm, Lag time 100 μs, Integration time 200 μs. TR-FRET ratios for each individual wells were calculated by equation: TR-FRET ratio=(Signal F515/Signal F486)*10000. Then the data were analyzed using a 4-parameter logistic model to calculate IC50 values. The following table lists the IC50 values of certain compounds of the invention.
Background: In TR-FRET formats the signal depends on donor and acceptor labels being close together.

In test [3] the target is T2, GDP-loaded, histidine-tagged, truncated (1-169) KRAS G12C (Homo sapiens, UniProt P01116, G12C).
T2 construct: histidine-tagged, truncated (1-169) KRAS proteins; His
T2 sequence (P01116 1-169 isoform P01116-2 G12C): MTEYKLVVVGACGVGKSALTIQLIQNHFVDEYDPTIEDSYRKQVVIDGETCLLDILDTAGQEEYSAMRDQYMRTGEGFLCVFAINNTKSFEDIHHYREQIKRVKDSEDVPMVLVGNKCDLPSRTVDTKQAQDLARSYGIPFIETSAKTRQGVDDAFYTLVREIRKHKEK
The experiment in a line: KRas G12C in vitro covalent MS-based assay. Type of test: binding. The note with it: KRAS protein 2 uM, denaturing SEC-MS intact mass. On the procedure: Biological Example 2: KRas G12C In Vitro Covalent MS-Based Assay
GDP-loaded, histidine-tagged, truncated (1-169) KRAS proteins (G12C, WT, G13D, as indicated) at 2 uM final concentration were incubated with the test compounds at the doses and time points indicated in a buffer containing 20 mmol/L HEPES pH 7.5, 150 mmol/L NaCl, 1 mmol/L MgCl 2, and 1 mmol/L DTT. Reactions were quenched by adding formic acid to 0.2%. Samples were buffer exchanged and analyzed by denaturing SEC-MS (Orbitrap Eclipse), Mobile phase: 30% ACN, 0.1% formic acid, 0.02% TFA. Raw data were analyzed by charge state deconvolution with BioPharma Finder 4.1 Intact Mass, ReSpect and Sliding Window algorithms. The masses were calculated via software for KRAS_G12C theoretical sequence and experimental compounds.

Experimental findings from patent US20250145639A1, “MUTANT KRAS MODULATORS AND USES THEREOF” (NEWAVE PHARMACEUTICAL INC., priority 2021, published 2025) are described below.

Chain of HIS-KRAS (G12V) (P01116 1-188 isoform P01116-2 G12V): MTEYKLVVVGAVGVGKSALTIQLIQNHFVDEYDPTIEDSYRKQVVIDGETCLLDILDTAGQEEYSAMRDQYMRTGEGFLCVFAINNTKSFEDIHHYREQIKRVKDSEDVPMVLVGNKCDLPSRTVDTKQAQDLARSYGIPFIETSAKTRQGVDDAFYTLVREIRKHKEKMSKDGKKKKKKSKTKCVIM

Turning to `C#Cc1c(F)ccc2cc(O)cc(-c3ncc4c(N5C[C@H]6CC[C@@H](C5)N6C(=O)C=C)nc(OC[C@]5(C)C[C@@H](F)CN5C)nc4c3F)c12` [Example 13, 1-((1R,5S)-3-(7-(8-ethynyl-7-fluoro-3-hydroxynaphthalen-1-yl)-8-fluoro-2-(((2S,4R)-4-fluoro-1,2-dimethylpyrrolidin-2-yl)methoxy)pyrido[4,3-d]pyrimidin-4-yl)-3,8-diazabicyclo[3.2.1]octan-8-yl)prop-2-en-1-one], the IC50 in test [1] came out at 13.7 nM; in test [2], 0.96 nM.

Take `C#Cc1c(F)ccc2cc(O)cc(-c3ncc4c(N5CCCC[C@H](NC(=O)C=C)C5)nc(OCC56CCCN5CCC6)nc4c3F)c12` [Example 9, N-[(3S)-1-[7-(8-ethynyl-7-fluoro-3-hydroxynaphthalen-1-yl)-8-fluoro-2-(hexahydropyrrolizin-7a-ylmethoxy)pyrido[4,3-d]pyrimidin-4-yl]azepan-3-yl]prop-2-enamide]: the half-inhibitory concentration (IC50) in test [1] is 3.15 nM; in test [2] it was 6.4 nM. In addition, the “Binding Model” value in test [3] was “Covalent binding”.

As to `C#Cc1c(F)ccc2cc(O)cc(-c3ncc4c(N5CCCC[C@@H](NC(=O)C=C)C5)nc(OCC56CCCN5CCC6)nc4c3F)c12` [Example 8, N-[(3R)-1-[7-(8-ethynyl-7-fluoro-3-hydroxynaphthalen-1-yl)-8-fluoro-2-(hexahydropyrrolizin-7a-ylmethoxy)pyrido[4,3-d]pyrimidin-4-yl]azepan-3-yl]prop-2-enamide], the IC50 in test [1] was determined as 22.9 nM; in test [2] it was 7.11 nM. Also, the “Binding Model” value in test [3] is “Covalent binding”.

In the case of `C#Cc1c(F)ccc2cc(O)cc(-c3ncc4c(N5C[C@H]6CC[C@@H](C5)N6C(=O)C=C)nc(OC[C@@]5(C)C[C@@H](F)CN5C)nc4c3F)c12` [Example 14, 1-((1R,5S)-3-(7-(8-ethynyl-7-fluoro-3-hydroxynaphthalen-1-yl)-8-fluoro-2-(((2R,4R)-4-fluoro-1,2-dimethylpyrrolidin-2-yl)methoxy)pyrido[4,3-d]pyrimidin-4-yl)-3,8-diazabicyclo[3.2.1]octan-8-yl)prop-2-en-1-one], in test [2], the IC50 worked out at 0.99 nM.

For the compound `C#Cc1c(F)ccc2cc(O)cc(-c3ncc4c(N5C[C@H]6CC[C@@H](C5)N6C(=O)C=C)nc(OC[C@@H]5CCCCN5C)nc4c3F)c12` [Example 7, 1-((1R,5S)-3-(7-(8-ethynyl-7-fluoro-3-hydroxynaphthalen-1-yl)-8-fluoro-2-(((S)-1-methylpiperidin-2-yl)methoxy)pyrido[4,3-d]pyrimidin-4-yl)-3,8-diazabicyclo[3.2.1]octan-8-yl)prop-2-en-1-one], the values for the IC50 in test [1] and in test [2] were 5.87 nM and 0.41 nM, respectively.

On to `C#Cc1cccc2cc(O)cc(-c3ncc4c(N5CC6CCC(C5)N6C(=O)C=C)nc(OC[C@@]56CCCN5C[C@H](F)C6)nc4c3F)c12` [Example 1, 1-[3-(2-{[(2R,7aS)-2-fluoro-hexahydropyrrolizin-7a-yl]methoxy}-7-(8-ethynyl-3-hydroxynaphthalen-1-yl)-8-fluoropyrido[4,3-d]pyrimidin-4-yl)-3,8-diazabicyclo[3.2.1]octan-8-yl]prop-2-en-1-one], for which the IC50 in test [1] worked out at 4.37 nM; in test [2] it was 10.6 nM.

`C#Cc1c(F)ccc2cc(O)cc(-c3ncc4c(N5C[C@H]6CC[C@@H](C5)N6C(=O)C=C)nc(N5CC(N(C)C)C5)nc4c3F)c12` [Example 4, 1-((1R,5S)-3-(2-(3-(dimethylamino)azetidin-1-yl)-7-(8-ethynyl-7-fluoro-3-hydroxynaphthalen-1-yl)-8-fluoropyrido[4,3-d]pyrimidin-4-yl)-3,8-diazabicyclo[3.2.1]octan-8-yl)prop-2-en-1-one]: the half-maximal inhibitory concentration (IC50) was 95.8 nM in test [1] and 3.34 nM in test [2].

Consider `C#Cc1c(F)ccc2cc(O)cc(-c3ncc4c(NCC5(N(C)C(=O)C=C)CCCC5)nc(OCC56CCCN5CCC6)nc4c3F)c12` [Example 11, N-(1-(((7-(8-ethynyl-7-fluoro-3-hydroxynaphthalen-1-yl)-8-fluoro-2-((tetrahydro-1H-pyrrolizin-7a(5H)-yl)methoxy)pyrido[4,3-d]pyrimidin-4-yl)amino)methyl)cyclopentyl)-N-methylacrylamide], for which the values for the IC50 in test [1] and in test [2] were 3.5 nM and 1.6 nM, respectively.

For the compound `C#Cc1c(F)ccc2cc(O)cc(-c3ncc4c(N5C[C@H]6CC[C@@H](C5)N6C(=O)C=C)nc(OC[C@]5(C)CCCN5C)nc4c3F)c12` [Example 12, 1-((1R,5S)-3-(2-(((S)-1,2-dimethylpyrrolidin-2-yl)methoxy)-7-(8-ethynyl-7-fluoro-3-hydroxynaphthalen-1-yl)-8-fluoropyrido[4,3-d]pyrimidin-4-yl)-3,8-diazabicyclo[3.2.1]octan-8-yl)prop-2-en-1-one], the half-maximal inhibitory concentration (IC50) in test [1] is 49.7 nM; in test [2], 1.5 nM.

For the compound `C#Cc1c(F)ccc2cc(O)cc(-c3ncc4c(N5C[C@H]6CC[C@@H](C5)N6C(=O)C=C)nc(OC[C@@H]5CCCN5C)nc4c3F)c12` [Example 6, 1-((1R,5S)-3-(7-(8-ethynyl-7-fluoro-3-hydroxynaphthalen-1-yl)-8-fluoro-2-(((S)-1-methylpyrrolidin-2-yl)methoxy)pyrido[4,3-d]pyrimidin-4-yl)-3,8-diazabicyclo[3.2.1]octan-8-yl)prop-2-en-1-one], the IC50 in test [1] turned out to be 0.38 nM; in test [2] it was 0.36 nM.

On to `C#Cc1c(F)ccc2cccc(-c3ncc4c(N5C[C@H]6CC[C@@H](C5)N6C(=O)C=C)nc(OCC56CCCN5CCC6)nc4c3F)c12` [Example 3, 1-((1R,5S)-3-(7-(8-ethynyl-7-fluoronaphthalen-1-yl)-8-fluoro-2-((tetrahydro-1H-pyrrolizin-7a(5H)-yl)methoxy)pyrido[4,3-d]pyrimidin-4-yl)-3,8-diazabicyclo[3.2.1]octan-8-yl)prop-2-en-1-one], for which the results for the IC50 in test [1] and in test [2] were 39.1 nM and 3.19 nM, respectively.

As to `C#Cc1c(F)ccc2cc(O)cc(-c3ncc4c(NCC5(N(C)C(=O)C=C)CCC5)nc(OCC56CCCN5CCC6)nc4c3F)c12` [Example 10, N-(1-(((7-(8-ethynyl-7-fluoro-3-hydroxynaphthalen-1-yl)-8-fluoro-2-((tetrahydro-1H-pyrrolizin-7a(5H)-yl)methoxy)pyrido[4,3-d]pyrimidin-4-yl)amino)methyl)cyclobutyl)-N-methylacrylamide], the IC50 in test [1] worked out at 5.1 nM; in test [2], 2.7 nM.

For orientation: IC50 means the concentration at which inhibition is half-maximal.
